Test: Bioavailability in dogs of two injectable formulations (GF s/c, OS i/m) of Compound A and Sulphadimethoxine (serum levels)
Format: in vivo
Conditions: 30mg total a.i./kg
Procedure: GF = Solution in glycofurol of Compound A 2% w/v and sulphadimethoxine (SDM), 10% w/v; OS = Suspension in Miglyol 812 of Compound A, 2% w/v and SDM, 10% w/v
Six adult beagles (three male, three female, including Dogs 1 to 4 of Example 1) and six adult male cats, housed in Coopers' kennels were in all cases given a single injection at 30mg. total a.i./kg. bodyweight, i.e. 1ml./4kg. The glycofurol solution (GF) was injected s/c in the dorsal neck region and the oily suspension (OS) was injected i/m in the quadriceps (anterior thigh) muscles.
Blood samples (jugular venous samples or on some occasions from the cats, cephalic vein samples) were collected before and after injection at the times indicated in Tables 5 to 8).
A standard well-plate bio-assay method was used for Compound A, SDM being estimated by the Bratton-Marshall method. (The bio-assay method cannot distinguish between parent compound and any active metabolites present, but the results are expressed as mg/L Compound A).

SMILES: COc1cc(NS(=O)(=O)c2ccc(N)cc2)nc(OC)n1 [SDM, sulphadimethoxine]
- Serum concentrations of SDM (dog No.1, GF s/c, 0 hours p.i.): 0 ng/mL
- Serum concentrations of SDM (dog No.1, GF s/c, 1 hours p.i.): 82000 ng/mL
- Serum concentrations of SDM (dog No.1, GF s/c, 4 hours p.i.): 95000 ng/mL
- Serum concentrations of SDM (dog No.1, GF s/c, 7 hours p.i.): 99000 ng/mL
- Serum concentrations of SDM (dog No.1, GF s/c, 24 hours p.i.): 47000 ng/mL
- Serum concentrations of SDM (dog No.1, GF s/c, 28 hours p.i.): 34000 ng/mL
- Serum concentrations of SDM (dog No.1, GF s/c, 31 hours p.i.): 30000 ng/mL
- Serum concentrations of SDM (dog No.1, GF s/c, 48 hours p.i.): 24000 ng/mL
- Serum concentrations of SDM (dog No.1, GF s/c, 55 hours p.i.): 17000 ng/mL
- Serum concentrations of SDM (dog No.1, GF s/c, 72 hours p.i.): 14000 ng/mL
- Serum concentrations of SDM (dog No.2, OS i/m, 0 hours p.i.): 0 ng/mL
- Serum concentrations of SDM (dog No.2, OS i/m, 1 hours p.i.): 5000 ng/mL
- Serum concentrations of SDM (dog No.2, OS i/m, 4 hours p.i.): 23000 ng/mL
- Serum concentrations of SDM (dog No.2, OS i/m, 7 hours p.i.): 35000 ng/mL
- Serum concentrations of SDM (dog No.2, OS i/m, 24 hours p.i.): 34000 ng/mL
- Serum concentrations of SDM (dog No.2, OS i/m, 28 hours p.i.): 31000 ng/mL
- Serum concentrations of SDM (dog No.2, OS i/m, 31 hours p.i.): 29000 ng/mL
- Serum concentrations of SDM (dog No.2, OS i/m, 48 hours p.i.): 35000 ng/mL
- Serum concentrations of SDM (dog No.2, OS i/m, 55 hours p.i.): 27000 ng/mL
- Serum concentrations of SDM (dog No.2, OS i/m, 72 hours p.i.): 6000 ng/mL
- Serum concentrations of SDM (dog No.3, GF s/c, 0 hours p.i.): 0 ng/mL
- Serum concentrations of SDM (dog No.3, GF s/c, 1 hours p.i.): 21000 ng/mL
- Serum concentrations of SDM (dog No.3, GF s/c, 4 hours p.i.): 90000 ng/mL
- Serum concentrations of SDM (dog No.3, GF s/c, 7 hours p.i.): 99000 ng/mL
- Serum concentrations of SDM (dog No.3, GF s/c, 24 hours p.i.): 51000 ng/mL
- Serum concentrations of SDM (dog No.3, GF s/c, 28 hours p.i.): 40000 ng/mL
- Serum concentrations of SDM (dog No.3, GF s/c, 31 hours p.i.): 30000 ng/mL
- Serum concentrations of SDM (dog No.3, GF s/c, 48 hours p.i.): 19000 ng/mL
- Serum concentrations of SDM (dog No.3, GF s/c, 55 hours p.i.): 12000 ng/mL
- Serum concentrations of SDM (dog No.3, GF s/c, 72 hours p.i.): 21000 ng/mL
- Serum concentrations of SDM (dog No.4, OS i/m, 0 hours p.i.): 0 ng/mL
- Serum concentrations of SDM (dog No.4, OS i/m, 1 hours p.i.): 7000 ng/mL
- Serum concentrations of SDM (dog No.4, OS i/m, 4 hours p.i.): 26000 ng/mL
- Serum concentrations of SDM (dog No.4, OS i/m, 7 hours p.i.): 36000 ng/mL
- Serum concentrations of SDM (dog No.4, OS i/m, 24 hours p.i.): 38000 ng/mL
- Serum concentrations of SDM (dog No.4, OS i/m, 28 hours p.i.): 37000 ng/mL
- Serum concentrations of SDM (dog No.4, OS i/m, 31 hours p.i.): 35000 ng/mL
- Serum concentrations of SDM (dog No.4, OS i/m, 48 hours p.i.): 26000 ng/mL
- Serum concentrations of SDM (dog No.4, OS i/m, 55 hours p.i.): 19000 ng/mL
- Serum concentrations of SDM (dog No.4, OS i/m, 72 hours p.i.): 10000 ng/mL
- Serum concentrations of SDM (dog No.5, OS i/m, 0 hours p.i.): 0 ng/mL
- Serum concentrations of SDM (dog No.5, OS i/m, 1 hours p.i.): 12000 ng/mL
- Serum concentrations of SDM (dog No.5, OS i/m, 4 hours p.i.): 43000 ng/mL
- Serum concentrations of SDM (dog No.5, OS i/m, 7 hours p.i.): 53000 ng/mL
- Serum concentrations of SDM (dog No.5, OS i/m, 24 hours p.i.): 42000 ng/mL
- Serum concentrations of SDM (dog No.5, OS i/m, 28 hours p.i.): 41000 ng/mL
- Serum concentrations of SDM (dog No.5, OS i/m, 31 hours p.i.): 43000 ng/mL
- Serum concentrations of SDM (dog No.5, OS i/m, 48 hours p.i.): 34000 ng/mL
- Serum concentrations of SDM (dog No.5, OS i/m, 55 hours p.i.): 25000 ng/mL
- Serum concentrations of SDM (dog No.5, OS i/m, 72 hours p.i.): 20000 ng/mL
- Serum concentrations of SDM (dog No.6, GF s/c, 0 hours p.i.): 0 ng/mL
- Serum concentrations of SDM (dog No.6, GF s/c, 1 hours p.i.): 26000 ng/mL
- Serum concentrations of SDM (dog No.6, GF s/c, 4 hours p.i.): 79000 ng/mL
- Serum concentrations of SDM (dog No.6, GF s/c, 7 hours p.i.): 94000 ng/mL
- Serum concentrations of SDM (dog No.6, GF s/c, 24 hours p.i.): 56000 ng/mL
- Serum concentrations of SDM (dog No.6, GF s/c, 28 hours p.i.): 47000 ng/mL
- Serum concentrations of SDM (dog No.6, GF s/c, 31 hours p.i.): 45000 ng/mL
- Serum concentrations of SDM (dog No.6, GF s/c, 48 hours p.i.): 34000 ng/mL
- Serum concentrations of SDM (dog No.6, GF s/c, 55 hours p.i.): 21000 ng/mL
- Serum concentrations of SDM (dog No.6, GF s/c, 72 hours p.i.): 10000 ng/mL
